Results published in patent publication US12421191B2, “3-hydroxyoxindole derivatives as CRHR2 antagonist” (RaQualia Pharma Inc., priority 2020, dated 2025).
pIC50: −log10 of the molar value.

Target: T1, human CRHR2-alpha (Homo sapiens, UniProt Q13324)
T1 construct: host or cells: CHO-K1
T1 sequence (Q13324 1-411): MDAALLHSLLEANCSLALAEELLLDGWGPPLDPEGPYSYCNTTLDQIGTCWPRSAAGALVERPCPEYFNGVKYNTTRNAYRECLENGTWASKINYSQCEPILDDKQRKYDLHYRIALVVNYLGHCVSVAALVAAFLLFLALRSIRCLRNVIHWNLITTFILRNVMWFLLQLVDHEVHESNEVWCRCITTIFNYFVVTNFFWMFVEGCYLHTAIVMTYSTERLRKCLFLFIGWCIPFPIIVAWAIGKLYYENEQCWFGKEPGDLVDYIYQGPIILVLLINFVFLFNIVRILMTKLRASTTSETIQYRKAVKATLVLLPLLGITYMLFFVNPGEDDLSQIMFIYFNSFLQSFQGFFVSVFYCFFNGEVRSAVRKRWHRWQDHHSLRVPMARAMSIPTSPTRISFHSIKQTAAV
Experiment: cAMP functional assay for human CRHR2 (LANCE Ultra TR-FRET)
Assay type: cell-based
Settings: inhibition of cAMP production in CHO-K1 cells stably expressing human CRHR2-alpha, EC90 of human urocortin2 as agonist; read-out: IC50 against CRHR2
Procedure: cAMP functional assay for human CRHR2 The ability of the compounds of this invention to inhibit either CRHR2 is assessed by 3′,5′-cyclic adenosine monophosphate (cAMP) production in cells using the LANCE Ultra cAMP assay kit (ParkinElmer), which are designed based on the homogeneous time-resolved fluorescence resonance energy transfer (TR-FRET) immunoassay.
CHO-K1 (Chinese hamster ovary) cells stably expressing human CRHR2-alpha (DiscoveRX, Cat. 95-0048C2) are grown in HAM's F12 media supplemented with 10% fetal bovine serum (FBS), 100 units/mL penicillin G, 100 microg/mL hygromycin and 0.5 microg/mL geneticin at 37° C. in 5% CO2 humidified incubator to 80% confluence. After 7 hours starvation treatment in culture media containing 0.1% FBS, the cells are washed with Hanks balanced salt solution (HBSS) and cryopreserved.
For cAMP assay, frozen cells are thawed and washed with HBSS, followed by resuspending cells in assay buffer (HBSS containing 0.1% bovine serum albumin, 0.5 mM isobutylmethylxanthine and 5 mM Hepes, pH 7.4) at the appropriate concentration for the assay. The cell suspensions are plated on 384-well microplates (Greiner Bio-One) at a density of 4,000 cells per well. After preincubating the cells with various concentrations of the compounds for 30 min at 25° C., an assay buffer containing EC90 concentration of agonist is added and the cells are incubated for 30 min at 25° C. Human urocortin2 (Peptide Institute) is used as agonists for CRHR2. For the termination of assay, europium-labeled cAMP tracer and ULight (registered trademark) dye labeled cAMP antibodies, both prepared with Lance-Ultra cAMP detection reagent (PerkinElmer) are added in the plate and incubate for 60 min at 25° C. After incubation, TR-FRET signal is detected by EnVision plate reader (PerkinElmer). The IC50 values for compounds are calculated from dose-response curves by fitting the percent inhibition using XLfit (ID Business Solutions).

| SMILES | pIC50 |
| --- | --- |
| COc1cc(C2(O)C(=O)N(C[C@H]3CC[C@H](NC(=O)c4cc(Cl)cnc4C(F)F)CC3)c3ccc(F)cc32)c(F)cn1 (some centres unmarked) [Example 124, 5-chloro-2-(difluoromethyl)-N-((1r,4r)-4-((5-fluoro-3-(5-fluoro-2-methoxypyridin-4-yl)-3-hydroxy-2-oxoindolin-1-yl)methyl)cyclohexyl) nicotinamide] | > 6.70 |
| O=C(N[C@H]1CC[C@H](CN2C(=O)C(O)(c3ccc(Cl)cn3)c3cc(F)ccc32)CC1)c1cc(Cl)cnc1C(F)F (some centres unmarked) [Example 125, 5-chloro-N-((1r,4r)-4-((3-(5-chloropyridin-2-yl)-5-fluoro-3-hydroxy-2-oxoindolin-1-yl)methyl)cyclohexyl)-2-(difluoromethyl)nicotinamide] | > 6.70 |
| COc1ccc(F)c(C2(O)C(=O)N(C[C@H]3CC[C@H](NC(=O)c4cc(Cl)cnc4C)CC3)c3ccccc32)c1 (some centres unmarked) [Example 128, 5-chloro-N-((1r,4r)-4-((3-(2-fluoro-5-methoxyphenyl)-3-hydroxy-2-oxoindolin-1-yl)methyl)cyclohexyl)-2-methylnicotinamide] | > 6.70 |
| Cc1cc(C2(O)C(=O)N(C[C@H]3CC[C@H](NC(=O)c4cc(Cl)cnc4C(F)F)CC3)c3ccccc32)cs1 (some centres unmarked) [Example 130, 5-chloro-2-(difluoromethyl)-N-((1r,4r)-4-((3-hydroxy-3-(5-methylthiophen-3-yl)-2-oxoindolin-1-yl)methyl)cyclohexyl) nicotinamide] | > 6.70 |
| Cc1ncc(Cl)cc1C(=O)N[C@H]1CC[C@H](CN2C(=O)C(O)(c3cc(F)cc(F)c3F)c3ccccc32)CC1 (some centres unmarked) [Example 132, 5-chloro-N-((1r,4r)-4-((3-hydroxy-2-oxo-3-(2,3,5-trifluorophenyl)indolin-1-yl)methyl)cyclohexyl)-2-methylnicotinamide] | > 6.70 |
| O=C(N[C@H]1CC[C@H](CN2C(=O)C(O)(c3cc(F)cc(F)c3F)c3ccccc32)CC1)c1cc(Cl)cnc1C(F)F (some centres unmarked) [Example 133, 5-chloro-2-(difluoromethyl)-N-((1r,4r)-4-((3-hydroxy-2-oxo-3-(2,3,5-trifluorophenyl)indolin-1-yl)methyl)cyclohexyl) nicotinamide] | > 6.70 |
| O=C(N[C@H]1CC[C@H](CN2C(=O)C(O)(c3ccc(F)c(F)c3F)c3ccccc32)CC1)c1cc(Cl)cnc1C(F)F (some centres unmarked) [Example 135, 5-chloro-2-(difluoromethyl)-N-((1r,4r)-4-((3-hydroxy-2-oxo-3-(2,3,4-trifluorophenyl)indolin-1-yl)methyl)cyclohexyl) nicotinamide] | > 6.70 |
| COc1ccc(C2(O)C(=O)N(C[C@H]3CC[C@H](NC(=O)c4cc(Cl)cnc4C)CC3)c3ccccc32)c(F)c1F (some centres unmarked) [Example 139, 5-chloro-N-((1r,4r)-4-((3-(2,3-difluoro-4-methoxyphenyl)-3-hydroxy-2-oxoindolin-1-yl)methyl)cyclohexyl)-2-methylnicotinamide] | > 6.70 |
| O=C(N[C@H]1CC[C@H](CN2C(=O)C(O)(c3ccc(Cl)cn3)c3c(F)cccc32)CC1)c1cc(Cl)cnc1C(F)F (some centres unmarked) [Example 140, 5-chloro-N-((1r,4r)-4-((3-(5-chloropyridin-2-yl)-4-fluoro-3-hydroxy-2-oxoindolin-1-yl)methyl)cyclohexyl)-2-(difluoromethyl)nicotinamide] | > 6.70 |
| Cc1ncc(Cl)cc1C(=O)N[C@H]1CC[C@H](CN2C(=O)C(O)(c3cccc(F)c3F)c3ccc(F)cc32)CC1 (some centres unmarked) [Example 143, 5-chloro-N-((1r,4r)-4-((3-(2,3-difluorophenyl)-6-fluoro-3-hydroxy-2-oxoindolin-1-yl)methyl)cyclohexyl)-2-methylnicotinamide] | > 6.70 |
| Cc1ccc2c(c1)N(C[C@H]1CC[C@H](NC(=O)c3cc(Cl)cnc3C(F)F)CC1)C(=O)C2(O)c1ccccc1F (some centres unmarked) [Example 148, 5-chloro-2-(difluoromethyl)-N-((1r,4r)-4-((3-(2-fluorophenyl)-3-hydroxy-6-methyl-2-oxoindolin-1-yl)methyl)cyclohexyl) nicotinamide] | > 6.70 |
| Cc1ccc2c(c1)N(C[C@H]1CC[C@H](NC(=O)c3cc(Cl)cnc3C(F)F)CC1)C(=O)C2(O)c1ccncc1F (some centres unmarked) [Example 149, 5-chloro-2-(difluoromethyl)-N-((1r,4r)-4-((3-(3-fluoropyridin-4-yl)-3-hydroxy-6-methyl-2-oxoindolin-1-yl)methyl)cyclohexyl) nicotinamide] | > 6.70 |
| COc1ccc(F)c(C2(O)C(=O)N(C[C@H]3CC[C@H](NC(=O)c4cc(Cl)cnc4C(F)F)CC3)c3cc(F)ccc32)c1 (some centres unmarked) [Example 156, 5-chloro-2-(difluoromethyl)-N-((1r,4r)-4-((6-fluoro-3-(2-fluoro-5-methoxyphenyl)-3-hydroxy-2-oxoindolin-1-yl)methyl)cyclohexyl) nicotinamide] | > 6.70 |
| COc1cccc2c1C(O)(c1cccc(F)c1F)C(=O)N2C[C@H]1CC[C@H](NC(=O)c2cc(Cl)cnc2C(F)F)CC1 (some centres unmarked) [Example 158, 5-chloro-2-(difluoromethyl)-N-((1r,4r)-4-((3-(2,3-difluorophenyl)-3-hydroxy-4-methoxy-2-oxoindolin-1-yl)methyl)cyclohexyl) nicotinamide] | > 6.70 |
| Cc1ncc(Cl)cc1C(=O)N[C@H]1CC[C@H](CN2C(=O)C(O)(c3cccc(F)c3F)c3cc(F)ccc32)CC1 (some centres unmarked) [Example 162, 5-chloro-N-((1r,4r)-4-((3-(2,3-difluorophenyl)-5-fluoro-3-hydroxy-2-oxoindolin-1-yl)methyl)cyclohexyl)-2-methylnicotinamide] | > 6.70 |
| O=C(N[C@H]1CC[C@H](CN2C(=O)C(O)(c3cccc(F)c3F)c3ccccc32)CC1)c1cc(Cl)cnc1Cl (some centres unmarked) [Example 167, 2,5-dichloro-N-((1r,4r)-4-((3-(2,3-difluorophenyl)-3-hydroxy-2-oxoindolin-1-yl)methyl)cyclohexyl) nicotinamide] | > 6.70 |
| COc1ccc(F)c(C2(O)C(=O)N(C[C@H]3CC[C@H](NC(=O)c4cc(Cl)cnc4C(F)F)CC3)c3ccc(F)cc32)c1 (some centres unmarked) [Example 168, 5-chloro-2-(difluoromethyl)-N-((1r,4r)-4-((5-fluoro-3-(2-fluoro-5-methoxyphenyl)-3-hydroxy-2-oxoindolin-1-yl)methyl)cyclohexyl) nicotinamide] | > 6.70 |
| O=C(N[C@H]1CC[C@H](CN2C(=O)C(O)(c3ccccc3F)c3ccc(Cl)cc32)CC1)c1cc(Cl)cnc1C(F)F (some centres unmarked) [Example 170, 5-chloro-N-((1r,4r)-4-((6-chloro-3-(2-fluorophenyl)-3-hydroxy-2-oxoindolin-1-yl)methyl)cyclohexyl)-2-(difluoromethyl)nicotinamide] | > 6.70 |
| Cc1ncc(Cl)cc1C(=O)N[C@H]1CC[C@H](CN2C(=O)C(O)(c3cccc(F)c3F)c3ccccc32)CC1 (some centres unmarked) [Example 173, 5-chloro-N-((1r,4r)-4-((3-(2,3-difluorophenyl)-3-hydroxy-2-oxoindolin-1-yl)methyl)cyclohexyl)-2-methylnicotinamide] | > 6.70 |
| O=C(N[C@H]1CC[C@H](CN2C(=O)C(O)(c3ccccc3F)c3c(F)cc(F)cc32)CC1)c1cc(Cl)cnc1C(F)F (some centres unmarked) [Example 177, 5-chloro-N-((1r,4r)-4-((4,6-difluoro-3-(2-fluorophenyl)-3-hydroxy-2-oxoindolin-1-yl)methyl)cyclohexyl)-2-(difluoromethyl)nicotinamide] | > 6.70 |
| Cc1cccc2c1C(O)(c1ccc(F)cn1)C(=O)N2C[C@H]1CC[C@H](NC(=O)c2cc(Cl)cnc2C(F)F)CC1 (some centres unmarked) [Example 178] | > 6.70 |
| Cc1cccc2c1C(O)(c1ccccc1F)C(=O)N2C[C@H]1CC[C@H](NC(=O)c2cc(Cl)cnc2C(F)F)CC1 (some centres unmarked) [Example 179, 5-chloro-2-(difluoromethyl)-N-((1r,4r)-4-((3-(2-fluorophenyl)-3-hydroxy-4-methyl-2-oxoindolin-1-yl)methyl)cyclohexyl) nicotinamide] | > 6.70 |
| COc1ccc(F)c(C2(O)C(=O)N(C[C@H]3CC[C@H](NC(=O)c4cc(Cl)cnc4C(F)(F)F)CC3)c3ccccc32)c1 (some centres unmarked) [Example 185, 5-chloro-N-((1r,4r)-4-((3-(2-fluoro-5-methoxyphenyl)-3-hydroxy-2-oxoindolin-1-yl)methyl)cyclohexyl)-2-(trifluoromethyl)nicotinamide] | > 6.70 |
